USRE45810E1, “Process for producing spherical base granule comprising easily water-soluble drug” (ASAHI KASEI CHEMICALS CORPORATION, priority 2006, dated 2015)
Like-named read-outs stand apart in the source and are kept apart here.

Columns and labels:
[1] = in 1 cm^3 of water of 20° C., cited from earlier work
[2] = Tackiness of dried film of layering liquid, finger test by panel of three experts; assay type: physicochemical
Procedure: A layering liquid (3 g) is poured in a polypropylene Petri dish having a diameter of 8 cm and dried at 40° C. in an air-circulation-free dryer (“FC610”, product of Advantec Co., Ltd.). Within three seconds after taking out the dried product from the dryer, tackiness of the dried film when an index finger is pressed against the film for two seconds and then released therefrom is evaluated by a panel of three experts. The tackiness is rated as “1” when no tackiness is observed, “2” when a little tackiness is observed, “3” when tackiness is observed, “4” when strong tackiness is observed, and “5” when very strong tackiness is observed. The tackiness of the dried film is evaluated by the average of them.
It is known empirically that agglomeration occurs during layering when the tackiness is “3” or higher so that the layering rate must be set low to prevent it. Layering cannot be performed in practice when the tackiness is “5”.

| Structure (SMILES) | Solubility [1] | Solubility ([1]; listed as fructose) | Tackiness of layering liquid (in words) [2] |
| --- | --- | --- | --- |
| OC[C@@H](O)[C@@H](O)[C@H](O)[C@H](O)CO [D-mannitol] | 0.18 g |  |  |
| O=C(CO)[C@@H](O)[C@H](O)[C@H](O)CO [Fructose, fructose] | 6 g | 0.6 g | do not show a tackiness reducing effect |
| OC[C@@H](O)[C@@H](O)[C@H](O)[C@@H](O)CO [Sorbitol, sorbitol] | 0.9 g |  | do not show a tackiness reducing effect |
